# Results published in PubChem BioAssay (NCI).
#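 Where inhibition never reached the appropriate level, the endpoint shown equals the highest concentration tested. Otherwise, values were interpolated linearly from a five-concentration, 48-hour dose response in 96-well plates. TGI: concentration producing complete growth inhibition.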
# Experiments:
# Assay in all cases: growth of human tumour cells (NCI), 48 h
# NCI-H460 lung = test system: NCI-H460 lung
# MDA-N = test system: MDA-N
# K-562 leukemia = test system: K-562 leukemia
# SK-OV-3 ovarian = test system: SK-OV-3 ovarian
# HOP-62 NSCLC = test system: HOP-62 NSCLC
# MCF7 breast = test system: MCF7 breast
# UACC-62 melanoma = test system: UACC-62 melanoma
# ACHN renal = test system: ACHN renal
# NCI-H226 lung = test system: NCI-H226 lung
# HCT-15 colon = test system: HCT-15 colon
# OVCAR-3 ovarian = test system: OVCAR-3 ovarian
# COLO 205 colon = test system: COLO 205 colon
# A549 NSCLC = test system: A549 NSCLC
# 786-0 renal = test system: 786-0 renal
# NCI-H522 lung = test system: NCI-H522 lung
# HS 578T breast = test system: HS 578T breast
# HCT-116 colon = test system: HCT-116 colon
# SNB-19 CNS = test system: SNB-19 CNS
# MDA-MB-231 breast = test system: MDA-MB-231 breast
# A498 renal = test system: A498 renal
# M14 melanoma = test system: M14 melanoma
# SK-MEL-2 melanoma = test system: SK-MEL-2 melanoma
# CCRF-CEM leukemia = test system: CCRF-CEM leukemia
# KM12 colon = test system: KM12 colon
# T-47D breast = test system: T-47D breast
# SK-MEL-28 melanoma = test system: SK-MEL-28 melanoma
# EKVX NSCLC = test system: EKVX NSCLC
# IGROV1 ovarian = test system: IGROV1 ovarian
# CAKI-1 renal = test system: CAKI-1 renal
# BT-549 breast = test system: BT-549 breast
# HCC-2998 colon = test system: HCC-2998 colon
# UO-31 renal = test system: UO-31 renal
# OVCAR-5 ovarian = test system: OVCAR-5 ovarian
# HOP-92 NSCLC = test system: HOP-92 NSCLC
# TK-10 renal = test system: TK-10 renal
# SF-539 CNS = test system: SF-539 CNS
# UACC-257 melanoma = test system: UACC-257 melanoma
# NCI-H23 lung = test system: NCI-H23 lung
# NCI/ADR-RES ovarian = test system: NCI/ADR-RES ovarian
# HT29 colon = test system: HT29 colon
# MALME-3M melanoma = test system: MALME-3M melanoma
# SW-620 colon = test system: SW-620 colon
# OVCAR-8 ovarian = test system: OVCAR-8 ovarian
# RPMI-8226 leukemia = test system: RPMI-8226 leukemia
# SR leukemia = test system: SR leukemia
# U251 CNS = test system: U251 CNS
# RXF 393 renal = test system: RXF 393 renal
# LOX IMVI melanoma = test system: LOX IMVI melanoma
# DU-145 prostate = test system: DU-145 prostate
# MDA-MB-435 = test system: MDA-MB-435
# SN12C renal = test system: SN12C renal
# SF-295 CNS = test system: SF-295 CNS
# PC-3 prostate = test system: PC-3 prostate
# SF-268 CNS = test system: SF-268 CNS
# HL-60(TB) leukemia = test system: HL-60(TB) leukemia
# OVCAR-4 ovarian = test system: OVCAR-4 ovarian
# SK-MEL-5 melanoma = test system: SK-MEL-5 melanoma
# MOLT-4 leukemia = test system: MOLT-4 leukemia
smiles,measurement,setting,value
COC(=O)/C(=C(\C)NC(C)=O)c1c(C(=O)OC)[nH]c2ccccc12,TGI,NCI-H460 lung,> 100 µM
same,TGI,MDA-N,> 100 µM
same,TGI,K-562 leukemia,> 100 µM
same,TGI,SK-OV-3 ovarian,> 100 µM
same,TGI,HOP-62 NSCLC,> 100 µM
same,TGI,MCF7 breast,> 100 µM
same,TGI,UACC-62 melanoma,> 100 µM
same,TGI,ACHN renal,> 100 µM
same,TGI,NCI-H226 lung,> 100 µM
same,TGI,HCT-15 colon,> 100 µM
same,TGI,OVCAR-3 ovarian,> 100 µM
same,TGI,COLO 205 colon,> 100 µM
same,TGI,A549 NSCLC,> 100 µM
same,TGI,786-0 renal,> 100 µM
same,TGI,NCI-H522 lung,> 100 µM
same,TGI,HS 578T breast,> 100 µM
same,TGI,HCT-116 colon,> 100 µM
same,TGI,SNB-19 CNS,> 100 µM
same,TGI,MDA-MB-231 breast,> 100 µM
same,TGI,A498 renal,> 100 µM
same,TGI,M14 melanoma,> 100 µM
same,TGI,SK-MEL-2 melanoma,> 100 µM
same,TGI,CCRF-CEM leukemia,> 100 µM
same,TGI,KM12 colon,> 100 µM
same,TGI,T-47D breast,> 100 µM
same,TGI,SK-MEL-28 melanoma,> 100 µM
same,TGI,EKVX NSCLC,> 100 µM
same,TGI,IGROV1 ovarian,> 100 µM
same,TGI,CAKI-1 renal,> 100 µM
same,TGI,BT-549 breast,> 100 µM
same,TGI,HCC-2998 colon,> 100 µM
same,TGI,UO-31 renal,> 100 µM
same,TGI,OVCAR-5 ovarian,> 100 µM
same,TGI,HOP-92 NSCLC,> 100 µM
same,TGI,TK-10 renal,> 100 µM
same,TGI,SF-539 CNS,> 100 µM
same,TGI,UACC-257 melanoma,> 100 µM
same,TGI,NCI-H23 lung,> 100 µM
same,TGI,NCI/ADR-RES ovarian,> 100 µM
same,TGI,HT29 colon,> 100 µM
same,TGI,MALME-3M melanoma,> 100 µM
same,TGI,SW-620 colon,> 100 µM
same,TGI,OVCAR-8 ovarian,> 100 µM
same,TGI,RPMI-8226 leukemia,> 100 µM
same,TGI,SR leukemia,> 100 µM
same,TGI,U251 CNS,> 100 µM
same,TGI,RXF 393 renal,> 100 µM
same,TGI,LOX IMVI melanoma,> 100 µM
same,TGI,DU-145 prostate,> 100 µM
same,TGI,MDA-MB-435,> 100 µM
same,TGI,SN12C renal,> 100 µM
same,TGI,SF-295 CNS,> 100 µM
same,TGI,PC-3 prostate,> 100 µM
same,TGI,SF-268 CNS,> 100 µM
same,TGI,HL-60(TB) leukemia,> 100 µM
same,TGI,OVCAR-4 ovarian,> 100 µM
same,TGI,SK-MEL-5 melanoma,> 100 µM
same,TGI,MOLT-4 leukemia,> 100 µM
COC(=O)c1c(O)ccc2c1c1c(n2CCc2ccccc2)C(=O)c2ccccc2C1=O,TGI,NCI-H460 lung,18 µM
same,TGI,MDA-N,24.8 µM
same,TGI,K-562 leukemia,25.8 µM
same,TGI,SK-OV-3 ovarian,32.3 µM
same,TGI,HOP-62 NSCLC,36.6 µM
same,TGI,MCF7 breast,30.2 µM
same,TGI,ACHN renal,24.5 µM
same,TGI,NCI-H226 lung,34.1 µM
same,TGI,HCT-15 colon,24.9 µM
same,TGI,OVCAR-3 ovarian,19.9 µM
same,TGI,COLO 205 colon,3.24 µM
same,TGI,A549 NSCLC,22.6 µM
same,TGI,786-0 renal,31 µM
same,TGI,NCI-H522 lung,22.7 µM
same,TGI,HS 578T breast,36.4 µM
same,TGI,HCT-116 colon,23.3 µM
same,TGI,SNB-19 CNS,32.8 µM
same,TGI,MDA-MB-231 breast,29.7 µM
same,TGI,A498 renal,31.5 µM
same,TGI,M14 melanoma,30.3 µM
same,TGI,SK-MEL-2 melanoma,29.8 µM
same,TGI,CCRF-CEM leukemia,50.8 µM
same,TGI,KM12 colon,26.4 µM
same,TGI,T-47D breast,20.8 µM
same,TGI,SK-MEL-28 melanoma,30 µM
same,TGI,EKVX NSCLC,36.5 µM
same,TGI,IGROV1 ovarian,24.9 µM
same,TGI,CAKI-1 renal,27.5 µM
same,TGI,BT-549 breast,29.6 µM
same,TGI,HCC-2998 colon,4.96 µM
same,TGI,UO-31 renal,23.1 µM
same,TGI,OVCAR-5 ovarian,37.7 µM
same,TGI,HOP-92 NSCLC,31.4 µM
same,TGI,TK-10 renal,24.1 µM
same,TGI,SF-539 CNS,30.8 µM
same,TGI,UACC-257 melanoma,32.3 µM
same,TGI,NCI-H23 lung,25.6 µM
same,TGI,NCI/ADR-RES ovarian,23.6 µM
same,TGI,HT29 colon,27.1 µM
same,TGI,MALME-3M melanoma,29.6 µM
same,TGI,SW-620 colon,30.3 µM
same,TGI,OVCAR-8 ovarian,22.1 µM
same,TGI,RPMI-8226 leukemia,32.1 µM
same,TGI,SR leukemia,22.7 µM
same,TGI,U251 CNS,26.8 µM
same,TGI,RXF 393 renal,34.9 µM
same,TGI,LOX IMVI melanoma,38.4 µM
same,TGI,DU-145 prostate,40.7 µM
same,TGI,MDA-MB-435,20.6 µM
same,TGI,SN12C renal,24.9 µM
same,TGI,SF-295 CNS,36.2 µM
same,TGI,PC-3 prostate,25.4 µM
same,TGI,SF-268 CNS,28.8 µM
same,TGI,HL-60(TB) leukemia,37.9 µM
same,TGI,OVCAR-4 ovarian,20.7 µM
same,TGI,SK-MEL-5 melanoma,25.3 µM
same,TGI,MOLT-4 leukemia,17.3 µM
